Experimental data: patent US8722849B2, “Polypeptides” (Novo Nordisk A/S, priority 2011, dated 2014)
Converted amounts (≈) assume the structure as drawn. Like-named read-outs stand apart in the source and are kept apart here. Starred links: 1 amine or outer side, 2 acyl side, 3 side chain; linkers in the order of their positions; H or OH if unused. Positions of bridges follow the written chain, without caps; N, C: chain ends. Residues, ends and D or L forms follow the SMILES beside them. *: point of attachment. C20 diacid = O=C(O)CCCCCCCCCCCCCCCCCCC(=O)*; C18 diacid = O=C(O)CCCCCCCCCCCCCCCCC(=O)*; γGlu = O=C(O)[C@H](CCC(=O)[*:2])N[*:1]

Key:
[1] = biological target: T1, rat amylin 3(a) receptor (rat calcitonin(a) receptor + rat RAMP3) (Rattus norvegicus, UniProt P32214+Q9JJ73); test: Assay (II)b functional cAMP FlashPlate assay, rat amylin receptor; type: cell-based; conditions: Table 11
T1 construct: expressed in transfected cells; host or cells: BHK tk'ts 13
T1 sequence (P32214 25-479 isoform P32214-2 limits assumed): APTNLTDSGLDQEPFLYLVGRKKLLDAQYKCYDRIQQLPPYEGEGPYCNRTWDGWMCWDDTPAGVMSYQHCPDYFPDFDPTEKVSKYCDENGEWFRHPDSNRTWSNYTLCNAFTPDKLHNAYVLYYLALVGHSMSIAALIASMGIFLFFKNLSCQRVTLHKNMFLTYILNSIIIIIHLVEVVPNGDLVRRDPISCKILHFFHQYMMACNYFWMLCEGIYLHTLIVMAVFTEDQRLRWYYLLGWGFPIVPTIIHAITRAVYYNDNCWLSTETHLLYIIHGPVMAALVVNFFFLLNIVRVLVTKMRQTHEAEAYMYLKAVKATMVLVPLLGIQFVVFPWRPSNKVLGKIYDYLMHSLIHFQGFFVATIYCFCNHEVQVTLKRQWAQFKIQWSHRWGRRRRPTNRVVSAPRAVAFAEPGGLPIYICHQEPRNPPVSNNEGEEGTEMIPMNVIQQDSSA
T1 sequence (Q9JJ73 23-147 partner): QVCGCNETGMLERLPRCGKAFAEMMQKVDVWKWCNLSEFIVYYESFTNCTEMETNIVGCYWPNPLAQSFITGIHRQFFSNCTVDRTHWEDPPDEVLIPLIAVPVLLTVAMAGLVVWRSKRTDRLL
Summary of the method: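 BHK tk'ts 13 cells transiently transfected with rat calcitonin(a) receptor, alone or with rat RAMP3 (amylin 3(a)), were stimulated 24 hours later with sample for 30 min in buffer containing IBMX. cAMP measured by competitive radioactive FlashPlate assay, scintillation read after 3 h detection incubation.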

[2] = Assay (III) ThT fibrillation assay for physical stability; type: physicochemical
Summary of the method: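 Freshly prepared formulations, pH-adjusted, with 1 μM ThT; four or eight replicates incubated at 37 °C under 960 rpm orbital shaking. Fluorescence (ex 444/em 485 nm) read every 20 min; […]. Peptide concentration measured by RP-HPLC before and after the run.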

[3] = Assay (IV) determination of solubility; type: physicochemical
Summary of the method: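 Polypeptide in water (~500 nmol/ml stock) was mixed 1:1 with 100 mM buffers from pH 3.0 to 8.0 (glycylglycine pH 3.0–5.0; bistrispropane pH 6.0–8.0). After 18 hours at room temperature, samples were centrifuged and the polypeptide remaining in solution was quantified by HPLC.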

[4] = bistrispropane buffer, pH 6, pH 6.0, read-out: Solubility pH 6.0
[5] = bistrispropane buffer, pH 6.5, pH 6.5, read-out: Solubility pH 6.5
[6] = bistrispropane buffer, pH 7, pH 7.0, 18 hours at room temperature, Table 3, read-out: Solubility pH 7.0
[7] = bistrispropane buffer, pH 7, pH 7.0, Table 8, read-out: Solubility pH 7.0
[8] = bistrispropane buffer, pH 7, pH 7.0, read-out: Solubility pH 7.0
[9] = bistrispropane buffer, pH 7.5, pH 7.5, read-out: Solubility pH 7.5
[10] = bistrispropane buffer, pH 8, pH 8.0, read-out: Solubility pH 8.0
[11] = glycylglycine buffer, pH 3, pH 3.0, read-out: Solubility pH 3.0
[12] = glycylglycine buffer, pH 4, pH 4.0, 18 hours at room temperature, Table 2, read-out: Solubility pH 4.0
[13] = glycylglycine buffer, pH 4, pH 4.0, read-out: Solubility pH 4.0
[14] = glycylglycine buffer, pH 5, pH 5.0, read-out: Solubility pH 5.0

| Compound | EC50 [1] | ThT pH 4.0 lag time ([2]; Table 8) | ThT pH 4.0 lag time ([2]; ThT fibrillation assay) | ThT pH 4.0 lag time (h) ([2]; ThT fibrillation assay) | solubility at 18 h [3, 4] | solubility at 18 h [3, 5] | solubility at 18 h [3, 6] | solubility at 18 h [3, 7] | solubility at 18 h [3, 8] | solubility at 18 h [3, 9] | solubility at 18 h [3, 10] | solubility at 18 h [3, 11] | solubility at 18 h [3, 12] | solubility at 18 h [3, 13] | solubility at 18 h [3, 14] | ThT pH 4.0 lag time ([2]; Table 9) | solubility at 18 h ([3]; bistrispropane buffer, pH 7, pH 7.0, Table 9, read-out: Solubility pH 7.0) | solubility at 18 h ([3]; bistrispropane buffer, pH 7.5, pH 7.5, Table 9, read-out: Solubility pH 7.5) |
| --- | --- | --- | --- | --- | --- | --- | --- | --- | --- | --- | --- | --- | --- | --- | --- | --- | --- | --- |
| CC[C@H](C)[C@H](NC(=O)[C@@H]1CCCN1C(=O)CNC(=O)[C@H](Cc1ccccc1)NC(=O)[C@H](CC(N)=O)NC(=O)[C@H](CC(N)=O)NC(=O)[C@H](CO)NC(=O)[C@H](CO)NC(=O)[C@H](Cc1c[nH]cn1)NC(=O)[C@H](Cc1c[nH]cn1)NC(=O)[C@H](CC(C)C)NC(=O)[C@H](Cc1ccccc1)NC(=O)[C@H](CCC(=O)O)NC(=O)[C@H](C)NC(=O)[C@H](CC(C)C)NC(=O)[C@H](CCCNC(=N)N)NC(=O)[C@H](CCC(N)=O)NC(=O)[C@@H](NC(=O)[C@H](C)NC(=O)[C@@H]1CSSC[C@H](NC(=O)[C@H](CCCCN)NC(=O)CC[C@H](NC(=O)CCCCCCCCCCCCCCCCC(=O)O)C(=O)O)C(=O)N[C@@H](CC(N)=O)C(=O)N[C@@H]([C@@H](C)O)C(=O)N[C@@H](C)C(=O)N[C@@H]([C@@H](C)O)C(=O)N1)[C@@H](C)O)C(=O)N[C@@H](CC(C)C)C(=O)N1CCC[C@H]1C(=O)N1CCC[C@H]1C(=O)N[C@H](C(=O)N[C@@H](CC(N)=O)C(=O)N[C@H](C(=O)NCC(=O)N[C@@H](CO)C(=O)N[C@@H](CC(N)=O)C(=O)N[C@H](C(=O)N[C@@H](Cc1ccc(O)cc1)C(N)=O)[C@@H](C)O)C(C)C)[C@@H](C)O [Example 46, N-alpha-[(S)-4-Carboxy-4-(17-carboxyheptadecanoylamino)butyryl]-[Glu14,His17]-pramlintide] ({C18 diacid-γGlu}-KCNTATCATQRLAEFLHHSSNNFGPILPPTNVGSNTY-NH2; disulfide 2-7 (inferred); C-terminus assumed) | 0.122 nM | 27.9 h | 27.9 h | 27.9 h | > 200 µM | > 200 µM | 169 µM (≈ 748 µg/mL) | 169 µM (≈ 748 µg/mL) | 169 µM (≈ 748 µg/mL) | 197 µM (≈ 872 µg/mL) | > 200 µM | > 200 µM | > 200 µM | > 200 µM | > 200 µM |  |  |  |
| CC[C@H](C)[C@H](NC(=O)[C@@H]1CCCN1C(=O)CNC(=O)[C@H](Cc1ccccc1)NC(=O)[C@H](CC(N)=O)NC(=O)[C@H](CC(N)=O)NC(=O)[C@H](CO)NC(=O)[C@H](CO)NC(=O)[C@H](Cc1c[nH]cn1)NC(=O)[C@H](Cc1c[nH]cn1)NC(=O)[C@H](CC(C)C)NC(=O)[C@H](Cc1ccccc1)NC(=O)[C@H](CCC(=O)O)NC(=O)[C@H](C)NC(=O)[C@H](CC(C)C)NC(=O)[C@H](CCCNC(=N)N)NC(=O)[C@H](CCC(N)=O)NC(=O)[C@@H](NC(=O)[C@H](C)NC(=O)[C@@H]1CSSC[C@H](NC(=O)[C@H](Cc2c[nH]cn2)NC(=O)CC[C@H](NC(=O)CCCCCCCCCCCCCCCCC(=O)O)C(=O)O)C(=O)N[C@@H](CC(N)=O)C(=O)N[C@@H]([C@@H](C)O)C(=O)N[C@@H](C)C(=O)N[C@@H]([C@@H](C)O)C(=O)N1)[C@@H](C)O)C(=O)N[C@@H](CC(C)C)C(=O)N1CCC[C@H]1C(=O)N1CCC[C@H]1C(=O)N[C@H](C(=O)N[C@@H](CC(N)=O)C(=O)N[C@H](C(=O)NCC(=O)N[C@@H](CO)C(=O)N[C@@H](CC(N)=O)C(=O)N[C@H](C(=O)N[C@@H](Cc1ccc(O)cc1)C(N)=O)[C@@H](C)O)C(C)C)[C@@H](C)O [Example 48, N-alpha-[(S)-4-Carboxy-4-(17-carboxyheptadecanoylamino)butyryl]-[His1,Glu14,His17]-pramlintide] ({C18 diacid-γGlu}-HCNTATCATQRLAEFLHHSSNNFGPILPPTNVGSNTY-NH2; disulfide 2-7 (inferred)) | 0.015 nM |  |  | 9 h | > 200 µM | 177 µM (≈ 785 µg/mL) | > 200 µM |  | > 200 µM | > 200 µM | > 200 µM | > 200 µM | > 200 µM | > 200 µM | > 200 µM |  |  |  |
| CC[C@H](C)[C@H](NC(=O)[C@@H]1CCCN1C(=O)CNC(=O)[C@H](Cc1ccccc1)NC(=O)[C@H](CC(N)=O)NC(=O)[C@H](CC(N)=O)NC(=O)[C@H](CO)NC(=O)[C@H](CO)NC(=O)[C@H](Cc1c[nH]cn1)NC(=O)[C@H](CCCNC(=N)N)NC(=O)[C@H](CC(C)C)NC(=O)[C@H](Cc1ccccc1)NC(=O)[C@H](CCC(=O)O)NC(=O)[C@H](C)NC(=O)[C@H](CC(C)C)NC(=O)[C@H](CCCNC(=N)N)NC(=O)[C@H](CCC(N)=O)NC(=O)[C@@H](NC(=O)[C@H](C)NC(=O)[C@@H]1CSSC[C@H](NC(=O)[C@H](CCCCN)NC(=O)CC[C@H](NC(=O)CCCCCCCCCCCCCCCCCCC(=O)O)C(=O)O)C(=O)N[C@@H](CC(N)=O)C(=O)N[C@@H]([C@@H](C)O)C(=O)N[C@@H](C)C(=O)N[C@@H]([C@@H](C)O)C(=O)N1)[C@@H](C)O)C(=O)N[C@@H](CC(C)C)C(=O)N1CCC[C@H]1C(=O)N1CCC[C@H]1C(=O)N[C@H](C(=O)N[C@@H](CC(N)=O)C(=O)N[C@H](C(=O)NCC(=O)N[C@@H](CO)C(=O)N[C@@H](CC(N)=O)C(=O)N[C@H](C(=O)N1CCC[C@H]1C(N)=O)[C@@H](C)O)C(C)C)[C@@H](C)O [Example 53, N-alpha-[(S)-4-Carboxy-4-(19-carboxynonadecanoylamino)butyryl]-[Glu14,Arg17,Pro37]-pramlintide] | 0.348 nM | >45 h | >45 h | >45 h | > 200 µM | > 200 µM | > 200 µM | > 200 µM | > 200 µM | > 200 µM | > 200 µM | > 200 µM | > 200 µM | > 200 µM | > 200 µM | >45 h | > 200 µM | > 200 µM |
| CC[C@H](C)[C@H](NC(=O)[C@@H]1CCCN1C(=O)CNC(=O)[C@H](Cc1ccccc1)NC(=O)[C@H](CC(N)=O)NC(=O)[C@H](CC(N)=O)NC(=O)[C@H](CO)NC(=O)[C@H](CO)NC(=O)[C@H](Cc1c[nH]cn1)NC(=O)[C@H](Cc1c[nH]cn1)NC(=O)[C@H](CC(C)C)NC(=O)[C@H](Cc1ccccc1)NC(=O)[C@H](CCC(=O)O)NC(=O)[C@H](C)NC(=O)[C@H](CC(C)C)NC(=O)[C@H](CCCNC(=N)N)NC(=O)[C@H](CCC(N)=O)NC(=O)[C@@H](NC(=O)[C@H](C)NC(=O)[C@@H]1CSSC[C@H](NC(=O)[C@H](CCCCN)NC(=O)[C@H](CCC(=O)O)NC(=O)CC[C@H](NC(=O)CCCCCCCCCCCCCCCCCCC(=O)O)C(=O)O)C(=O)N[C@@H](CC(N)=O)C(=O)N[C@@H]([C@@H](C)O)C(=O)N[C@@H](C)C(=O)N[C@@H]([C@@H](C)O)C(=O)N1)[C@@H](C)O)C(=O)N[C@@H](CC(C)C)C(=O)N1CCC[C@H]1C(=O)N1CCC[C@H]1C(=O)N[C@H](C(=O)N[C@@H](CC(N)=O)C(=O)N[C@H](C(=O)NCC(=O)N[C@@H](CO)C(=O)N[C@@H](Cc1c[nH]cn1)C(=O)N[C@H](C(=O)N[C@@H](Cc1ccc(O)cc1)C(N)=O)[C@@H](C)O)C(C)C)[C@@H](C)O [Example 56, N-alpha-[(S)-4-Carboxy-4-(19-carboxynonadecanoylamino)butyryl]-Glu-[Glu14,His17,His35]-pramlintide] ({C20 diacid-γGlu}-EKCNTATCATQRLAEFLHHSSNNFGPILPPTNVGSHTY-NH2; disulfide 3-8 (inferred)) | 0.643 nM |  |  | 16 h | > 200 µM | > 200 µM | > 200 µM |  | > 200 µM | > 200 µM | > 200 µM | > 200 µM | > 200 µM | > 200 µM | > 200 µM |  |  |  |
